# From US10669285B2, “Condensed [1,4] diazepine compounds as autotaxin (ATX) and lysophosphatidic acid (LPA) production inhibitors” (Hoffmann-La Roche Inc., priority 2014, dated 2020)
# Target: ATX (human His-tagged) (Homo sapiens (Human), UniProt Q13822)
# Test: Human ATX enzyme inhibition assay (fluorescence quenching, MR121 substrate)
# Format: biochemical
# Conditions: inhibitory activity against ATX; 30 nM ATX, 1 μM MR121 substrate, 30° C.
# Procedure: Human ATX Enzyme Inhibition Assay
# ATX inhibition was measured by a fluorescence quenching assay using a specifically labeled substrate analogue (MR121 substrate). To obtain this MR121 substrate, BOC and TBS protected 6-amino-hexanoic acid (R)-3-({2-[3-(2-{2-[2-(2-amino-ethoxy)-ethoxy]-ethoxy}-ethoxy)-propionylamino]-ethoxy}-hydroxy-phosphoryloxy)-2-hydroxy-propyl ester (Ferguson et al., Org Lett 2006, 8 (10), 2023) was labeled with MR121 fluorophore (CAS 185308-24-1, 1-(3-carboxypropyl)-11-ethyl-1,2,3,4,8,9,10,11-octahydro-dipyrido[3,2-b:2′,3′-i]phenoxazin-13-ium) on the free amine of the ethanolamine side and then, after deprotection, subsequently with tryptophan on the side of the aminohexanoic acid.
# Assay working solutions were made as follows:
# Assay buffer (50 mM Tris-HCl, 140 mM NaCl, 5 mM KCl, 1 mM CaCl2, 1 mM MgCl2, 0.01% Triton-X-100, pH 8.0;
# ATX solution: ATX (human His-tagged) stock solution (1.08 mg/mL in 20 mM bicine, pH 8.5, 0.15 M NaCl, 10% glycerol, 0.3% CHAPS, 0.02% NaN3), diluted to 1.4-2.5× final concentration in assay buffer;
# MR121 substrate solution: MR121 substrate stock solution (800 μM MR121 substrate in DMSO), diluted to 2-5× final concentration in assay buffer.
# Test compounds (10 mM stock in DMSO, 8 μL) were obtained in 384 well sample plates (Corning Costar #3655) and diluted with 8 μL DMSO. Row-wise serial dilutions were made by transferring 8 μL cpd solution to the next row up to […]. The compound and control solutions were mixed five times and 2 μL were transferred to 384 well assay plates (Corning Costar #3702). Then, 15 μL of 41.7 nM ATX solution was added (30 nM final concentration), mixed five times and then incubated for 15 minutes at 30° C. 10 μL of MR121 substrate solution was added (1 μM final concentration), mixed 30 times and then incubated for 15 minutes at 30° C. Fluorescence was then measured every 2 minutes for 1 hour (Perkin Elmer plate: vision multimode reader); light intensity: 2.5%; exp. time: 1.4 sec, Filter: Fluo_630/690 nm) and IC50 values were calculated from these readouts.
row,Compound,IC50 [nM]
1,"O=C(OCc1ccc(OC(F)(F)F)c(F)c1)N1CCc2nc(C(=O)N3CCc4[nH]nnc4C3)nn2CC1 [Example 36, [3-fluoro-4-(trifluoromethoxy)phenyl]methyl 2-(1,4,6,7-tetrahydrotriazolo[4,5-c]pyridine-5-carbonyl)-5,6,8,9-tetrahydro-[1,2,4]triazolo[1,5-d][1,4]diazepine-7-carboxylate]",6
2,"O=C(OCc1ccccc1)N1CCc2cc(C(=O)N3CCc4[nH]nnc4C3)nn2CC1 [Example 1, Benzyl 2-(1,4,6,7-tetrahydrotriazolo[4,5-c]pyridine-5-carbonyl)-4,5,7,8-tetrahydropyrazolo[1,5-d][1,4]diazepine-6-carboxylate]",158
3,"O=C(OCc1ccc(OC(F)F)c(F)c1)N1CCc2cc(C(=O)N3CCc4[nH]nnc4C3)nn2CC1 [Example 31, 4-(difluoromethoxy)-3-fluorobenzyl 2-(4,5,6,7-tetrahydro-1H-[1,2,3]triazolo[4,5-c]pyridine-5-carbonyl)-7,8-dihydro-4H-pyrazolo[1,5-d][1,4]diazepine-6(5H)-carboxylate]",22
4,"O=C1N[C@@H]2CCN(C(=O)c3nc4n(n3)CCN(C(=O)OCc3ccc(OC(F)(F)F)c(F)c3)CC4)C[C@H]2O1 [Example 43, 3-fluoro-4-(trifluoromethoxy)benzyl 2-((3aR,7aR)-2-oxooctahydrooxazolo[5,4-c]pyridine-5-carbonyl)-8,9-dihydro-5H-[1,2,4]triazolo[1,5-d][1,4]diazepine-7(6H)-carboxylate]",56
5,"O=C(OCc1ccc(OC(F)(F)F)c(Cl)c1)N1CCc2cc(C(=O)N3CCc4[nH]nnc4C3)nn2CC1 [Example 37, 3-chloro-4-(trifluoromethoxy)benzyl 2-(4,5,6,7-tetrahydro-1H-[1,2,3]triazolo[4,5-c]pyridine-5-carbonyl)-7,8-dihydro-4H-pyrazolo[1,5-d][1,4]diazepine-6(5H)-carboxylate]",9
6,"COc1ccc(CCC(=O)N2CCc3cc(C(=O)N4CCc5[nH]nnc5C4)nn3CC2)cc1 [Example 19, 3-(4-methoxyphenyl)-1-[2-(1,4,6,7-tetrahydrotriazolo[4,5-c]pyridine-5-carbonyl)-4,5,7,8-tetrahydropyrazolo[1,5-d][1,4]diazepin-6-yl]propan-1-one]",151
7,"CC(C)(C)C(=O)Nc1cc(C#N)ccc1COC(=O)N1CCc2cc(C(=O)N3CCc4[nH]nnc4C3)nn2CC1 [Example 10, [4-Cyano-2-(2,2-dimethylpropanoylamino)phenyl]methyl 2-(1,4,6,7-tetrahydrotriazolo[4,5-c]pyridine-5-carbonyl)-4,5,7,8-tetrahydropyrazolo[1,5-d][1,4]diazepine-6-carboxylate]",18
8,"COc1ccc(COC(=O)N2CCc3cc(C(=O)N4CCc5[nH]nnc5C4)nn3CC2)cc1 [Example 27, 4-methoxybenzyl 2-(4,5,6,7-tetrahydro-1H-[1,2,3]triazolo[4,5-c]pyridine-5-carbonyl)-7,8-dihydro-4H-pyrazolo[1,5-d][1,4]diazepine-6(5H)-carboxylate]",52
9,"O=C(OCc1cccc(F)c1)N1CCc2cc(C(=O)N3CCc4[nH]nnc4C3)nn2CC1 [Example 29, 3-fluorobenzyl 2-(4,5,6,7-tetrahydro-1H-[1,2,3]triazolo[4,5-c]pyridine-5-carbonyl)-7,8-dihydro-4H-pyrazolo[1,5-d][1,4]diazepine-6(5H)-carboxylate]",38
10,"N#Cc1ccc(OCC(=O)N2CCc3cc(C(=O)N4CCc5[nH]nnc5C4)nn3CC2)c(C2CC2)c1 [Example 15, 3-Cyclopropyl-4-(2-oxo-2-(2-(4,5,6,7-tetrahydro-1H-[1,2,3]triazolo[4,5-c]pyridine-5-carbonyl)-7,8-dihydro-4H-pyrazolo[1,5-d][1,4]diazepin-6(5H)-yl)ethoxy)benzonitrile]",11
11,"O=C(CCc1ccc(OC(F)(F)F)c(F)c1)N1CCc2cc(C(=O)N3CCc4[nH]nnc4C3)nn2CC1 [Example 18, 3-[3-fluoro-4-(trifluoromethoxy)phenyl]-1-[2-(1,4,6,7-tetrahydrotriazolo[4,5-c]pyridine-5-carbonyl)-4,5,7,8-tetrahydropyrazolo[1,5-d][1,4]diazepin-6-yl]propan-1-one]",13
12,"N#Cc1ccc(COC(=O)N2CCc3cc(C(=O)N4CCc5[nH]nnc5C4)nn3CC2)c(F)c1 [Example 8, 4-Cyano-2-fluorobenzyl 2-(4,5,6,7-tetrahydro-1H-[1,2,3]triazolo[4,5-c]pyridine-5-carbonyl)-7,8-dihydro-4H-pyrazolo[1,5-d][1,4]diazepine-6(5H)-carboxylate]",60
13,"N#Cc1ccc(COC(=O)N2CCc3cc(C(=O)N4CCc5[nH]nnc5C4)nn3CC2)cc1 [Example 6, 4-Cyanobenzyl 2-(4,5,6,7-tetrahydro-1H-[1,2,3]triazolo[4,5-c]pyridine-5-carbonyl)-7,8-dihydro-4H-pyrazolo[1,5-d][1,4]diazepine-6(5H)-carboxylate]",4
14,"O=C(OCc1ccc(OC(F)(F)F)cc1)N1CCc2cc(C(=O)N3CCc4[nH]nnc4C3)nn2CC1 [Example 5, [4-(Trifluoromethoxy)phenyl]methyl 2-(1,4,6,7-tetrahydrotriazolo[4,5-c]pyridine-5-carbonyl)-4,5,7,8-tetrahydropyrazolo[1,5-d][1,4]diazepine-6-carboxylate]",2
15,"CC(C)(C)c1cc(C#N)ccc1OCC(=O)N1CCc2cc(C(=O)N3CCc4[nH]nnc4C3)nn2CC1 [Example 17, 3-tert-Butyl-4-[2-oxo-2-[2-(1,4,6,7-tetrahydrotriazolo[4,5-c]pyridine-5-carbonyl)-4,5,7,8-tetrahydropyrazolo[1,5-d][1,4]diazepin-6-yl]ethoxy]benzonitrile]",10
16,"O=C(OCc1ccc(F)c(F)c1)N1CCc2cc(C(=O)N3CCc4[nH]nnc4C3)nn2CC1 [Example 30, (3,4-difluorophenyl)methyl 2-(1,4,6,7-tetrahydrotriazolo[4,5-c]pyridine-5-carbonyl)-4,5,7,8-tetrahydropyrazolo[1,5-d][1,4]diazepine-6-carboxylate]",41
17,"O=C(CCc1ccc(OC(F)(F)F)c(Cl)c1)N1CCc2nc(C(=O)N3CCc4[nH]nnc4C3)nn2CC1 [Example 23, 3-[3-chloro-4-(trifluoromethoxy)phenyl]-1-[2-(1,4,6,7-tetrahydrotriazolo[4,5-c]pyridine-5-carbonyl)-5,6,8,9-tetrahydro-[1,2,4]triazolo[1,5-d][1,4]diazepin-7-yl]propan-1-one]",50
18,"CC(C)(C)C(=O)Nc1cc(C#N)ccc1COC(=O)N1CCc2nc(C(=O)N3CCc4[nH]nnc4C3)nn2CC1 [Example 12, [4-Cyano-2-(2,2-dimethylpropanoylamino)phenyl]methyl 2-(1,4,6,7-tetrahydrotriazolo[4,5-c]pyridine-5-carbonyl)-5,6,8,9-tetrahydro-[1,2,4]triazolo[1,5-d][1,4]diazepine-7-carboxylate]",67
19,"O=C(OCc1ccccc1)N1CCc2nc(C(=O)N3CCc4[nH]nnc4C3)cn2CC1 [Example 2, Benzyl 2-(1,4,6,7-tetrahydrotriazolo[4,5-c]pyridine-5-carbonyl)-5,6,8,9-tetrahydroimidazo[1,2-d][1,4]diazepine-7-carboxylate]",2010
20,"O=C(CCc1ccc(OC(F)(F)F)c(Cl)c1)N1CCc2cc(C(=O)N3CCc4[nH]nnc4C3)nn2CC1 [Example 22, 3-[3-chloro-4-(trifluoromethoxy)phenyl]-1-[2-(1,4,6,7-tetrahydrotriazolo[4,5-c]pyridine-5-carbonyl)-4,5,7,8-tetrahydropyrazolo[1,5-d][1,4]diazepin-6-yl]propan-1-one]",18
21,"COc1cc(OC(F)(F)F)ccc1COC(=O)N1CCc2cc(C(=O)N3CCc4[nH]nnc4C3)nn2CC1 [Example 38, 2-methoxy-4-(trifluoromethoxy)benzyl 2-(4,5,6,7-tetrahydro-1H-[1,2,3]triazolo[4,5-c]pyridine-5-carbonyl)-7,8-dihydro-4H-pyrazolo[1,5-d][1,4]diazepine-6(5H)-carboxylate]",21
22,"O=C(CCc1ccc(OC(F)(F)F)cc1)N1CCc2cc(C(=O)N3CCc4[nH]nnc4C3)nn2CC1 [Example 14, 1-[2-(1,4,6,7-tetrahydrotriazolo[4,5-c]pyridine-5-carbonyl)-4,5,7,8-tetrahydropyrazolo[1,5-d][1,4]diazepin-6-yl]-3-[4-(trifluoromethoxy)phenyl]propan-1-one]",14
23,"O=C(OCc1ccc(C2CC2)cc1)N1CCc2cc(C(=O)N3CCc4[nH]nnc4C3)nn2CC1 [Example 34, 4-cyclopropylbenzyl 2-(4,5,6,7-tetrahydro-1H-[1,2,3]triazolo[4,5-c]pyridine-5-carbonyl)-7,8-dihydro-4H-pyrazolo[1,5-d][1,4]diazepine-6(5H)-carboxylate]",7
